Measurements from patent US20220213197A1 (priority 2019, published 2022).
“And” between values parts separate entries of the source, which are not always exact repeats. Equal entries are not always repeated. Where two headings read alike, the source gives them in different places.

Columns and labels:
[1] = system: influenza A/California/07/09(H1N1)pdm09; assay type: in vivo, mice
[2] = system: Chlamydophila pneumonia CM1 strain; test: Lung infection model with Chlamydophila pneumonia; assay type: in vivo, C57BL/6J mice
[3] = system: Clostridium perfringens (ATCC 13124)
[4] = system: Klebsiella pneumoniae 8637 strain; test: Neutropenic lung infection model; assay type: in vivo, ICR mice; details: for Decrease in the number of CFU vs control (placebo): Day 5
[5] = system: carrageenan induced inflammation in rats; test: Carrageenan induced paw oedema; assay type: in vivo
Procedure: Inflammatory response was induced in animals by subplantar injection (into the plantar aponeurosis of the left hind paw) of 0.1 ml 1% carrageenan solution.
The severity of inflammatory response was assessed by estimating oedema weight gain in mg calculated as a difference between the paw weights with and without oedema.

[6] = system: Streptococcus pyogenes (ATCC BAA-2469); test: Soft tissue (thigh) infection model in neutropenic mice; assay type: in vivo; details: 24 hours post infection
[7] = system: Mycobacterium tuberculosis; test: Antituberculosis activity in guinea pig model of experimental tuberculosis; details: in vivo
[8] = system: Pseudomonas aeruginosa (RP73); test: Pseudomonas aeruginosa lung infection in rats; assay type: in vivo, Sprague-Dawley rats
[9] = system: Klebsiella pneumoniae BAA-1705; test: Bacterial pneumonia in neutropenic mice, AMC-resistant strain (Study No. 1); assay type: in vivo
[10] = 48 hours after infection (medicament: 48 hours and onwards)

CCOC(=O)C1=C[C@@H](OC(CC)CC)[C@H](NC(C)=O)[C@@H](N)C1 [Tamiflu, Oseltamivir]
Body weights of experimental animals expressed as M ± SD ([1]; Day 0): 16.7 ± 1.2 | Body weights of experimental animals expressed as M ± SD ([1]; Day 5): 15.5 ± 1.4 | Body weights of experimental animals expressed as M ± SD ([1]; Day 9): 13.6 ± 1.7 | Body weights of experimental animals expressed as M ± SD ([1]; Day 12): 14.9 ± 2.2 | Body weights of experimental animals expressed as M ± SD ([1]; Day −5): 17.8 ± 1.2 | Body weights of experimental animals expressed as M ± SD ([1]; Day −15): 16.1 ± 1.0 | Protection index, % ([1]; PI=((Mc−Me)/Mc)×100%): 57.1% | MLE ([1]; mean life expectancy over 14 days): 8.6 days | Mortality rate, % ([1]; mouse, in vivo): 30% | Viral titer in lung tissue, Mean ([1]; mouse, in vivo): 4.8 Ig TCID50/0.2 ml | Viral titer in lung tissue, individual animals ([1]; mouse, in vivo, listed as 2): 4.5 Ig TCID50/0.2 ml (5×) and 5.0 Ig TCID50/0.2 ml (2×) and 4.0 Ig TCID50/0.2 ml and 5.5 Ig TCID50/0.2 ml and 6.0 Ig TCID50/0.2 ml | MLE increase ([1]; vs negative control): 0.2 days

CC[C@H]1OC(=O)[C@H](C)[C@@H](O[C@H]2C[C@@](C)(OC)[C@@H](O)[C@H](C)O2)[C@H](C)[C@@H](O[C@@H]2O[C@H](C)C[C@H](N(C)C)[C@H]2O)[C@](C)(O)C[C@@H](C)CN(C)[C@H](C)[C@@H](O)[C@]1(C)O [azithromycin]
Death rate ([2]; Day 3 after infection): 19% | IL-1β concentration in lung tissue, % of the control levels (Group 1) ([2]; Day 3 after infection): 17% | IL-6 concentration in lung tissue, % of the control levels (Group 1) ([2]; Day 3 after infection): 15% | Number of infected HEp2 cells (bacterial load of lung homogenate), % of placebo ([2]; Day 3 after infection): 15% | IL-1β concentration in lung tissue, % of the control levels (Group 1) ([2]; Day 6 after infection): 7% | IL-6 concentration in lung tissue, % of the control levels (Group 1) ([2]; Day 6 after infection): 8% | Number of infected HEp2 cells (bacterial load of lung homogenate), % of placebo ([2]; Day 6 after infection): 17% | IL-1β concentration in lung tissue, % of the control levels (Group 1) ([2]; Day 12 after infection): 6% | IL-6 concentration in lung tissue, % of the control levels (Group 1) ([2]; Day 12 after infection): 5% | Number of infected HEp2 cells (bacterial load of lung homogenate), % of placebo ([2]; Day 12 after infection): 5% | Survival rate ([2]; whole study, deaths first recorded on Day 3): 81%

CO[C@@]1(NC(=O)Cc2cccs2)C(=O)N2C(C(=O)O)=C(COC(N)=O)CS[C@@H]21 [cefoxitin]
Animals alive ([3]; 24 hours after infection): 55% | Animals alive [3, 10]: 15% | Animals alive ([3]; 72 hours after infection): 15%

C[C@@H](O)[C@H]1C(=O)N2C(C(=O)O)=C(SCCN=CN)C[C@H]12 [imipenem]
Animals survived ([4]; Day 1 after infection): 85% | Animals survived ([4]; Day 2): 70% | Animals survived ([4]; Day 3 (imipenem: Day 3 and onwards)): 50% | Decrease in the number of CFU vs control (placebo) ([4]; blood): 67% | Decrease in the number of CFU vs control (placebo) ([4]; kidneys): 61% | Decrease in the number of CFU vs control (placebo) ([4]; liver): 40% | Decrease in the number of CFU vs control (placebo) ([4]; lungs): 48% | Decrease in the number of CFU vs control (placebo) ([4]; spleen): 45%

COc1ccc2c(c1)c(CC(=O)O)c(C)n2C(=O)c1ccc(Cl)cc1 [indomethacin, Indomethacin]
Decrease of oedema weight as compared to the control [5]: 57.9%

CC(=O)NC[C@H]1CN(c2ccc(N3CCOCC3)c(F)c2)C(=O)O1 [placebo + L, linezolid]
Mean bacterial burden in the femoral tissue [6]: 5.5 CFU/g, log10

CC[C@H]1OC(=O)[C@H](C)C(=O)[C@H](C)[C@@H](O[C@@H]2O[C@H](C)C[C@H](N(C)C)[C@H]2O)[C@](C)(OC)C[C@@H](C)C(=O)[C@H](C)[C@H]2N(CCCCn3cnc(-c4cccnc4)c3)C(=O)O[C@]12C [placebo + T, telithromycin]
Mean bacterial burden in the femoral tissue [6]: 8.4 CFU/g, log10

NNC(=O)c1ccncc1 [placebo + isoniazid, Isoniazid]
Difference between initial and final body weight of animals [7]: 180.6 ± 28.4 g | Life expectancy, units [7]: 2.7 ± 0.09 units

CN(C)[C@@H]1C(O)=C(C(N)=O)C(=O)[C@@]2(O)C(O)=C3C(=O)c4c(O)cccc4[C@@](C)(O)[C@H]3C[C@@H]12 [tetracycline]
Animals alive ([3]; 24 hours after infection): 85% | Animals alive [3, 10]: 80% | Animals alive ([3]; 72 hours after infection): 80%

NC[C@H]1O[C@H](O[C@H]2[C@H](O)[C@@H](O[C@H]3O[C@H](CO)[C@@H](O)[C@H](N)[C@H]3O)[C@H](N)C[C@@H]2N)[C@H](N)C[C@@H]1O [tobramycin]
Decrease of bronchoalveolar lavage CFU count compared to placebo ([8]; Day 5): 88% | Decrease of bronchoalveolar lavage CFU count compared to the untreated animals ([8]; Day 5): 88% | Reduction of lung CFU count compared to placebo ([8]; Day 5): 19% | Reduction of lung CFU count compared to the untreated animals ([8]; Day 5): 29% | Overall decrease in body weight by the end of the study ([8]; vs baseline): 4%

Gentamicin
Animals survived ([9]; AMC-resistant strain, 10^6 CFU/mouse): 70% | Body weight evolution ([9]; follow-up period): body weight evolution was observed from 54 h
